From patent publication US20120132797A1, “MEANS AND METHODS FOR DIAGNOSING THYROID DISORDERS” (BASF SE, priority 2009, published 2012)

Tested on: Wistar (Crl:WI(Han)) rats
Experiment: Mass spectrometry-based plasma metabolite profiling of rats treated with known inducers of thyroid function impairment
Assay type: in vivo, rat
Details: ratio of group medians vs controls
Excerpt: At the beginning of the study the animals were 10-11 weeks old. Each dose group in the studies consisted of five rats per sex, and was compared with controls (10 rats per sex). […] The dose levels were chosen to show the typical overt (high dose) and slight (low dose) toxicological symptoms of the substances as described in the literature or in BASF internal study reports.
Blood samples were withdrawn from the retro-orbital sinus in all rats under isoflurane anesthesia on study days 7, 14 and 28 after a fasting period of 16-20 hours.
For mass spectrometry-based metabolite profiling analysis, plasma samples were extracted by a proprietary method which delivers a polar and a non-polar fraction. For GC-MS analysis, the non-polar fraction was treated with methanol under acidic conditions to yield the fatty acid methyl esters. Both fractions were further derivatised with Omethyl-hydroxyamine hydrochloride and pyridine to convert oxo groups to Omethyloximes and subsequently with a silylating agent before analysis.
In LC-MS/MS analysis, both fractions were reconstituted in appropriate solvent mixtures. HPLC was performed by gradient elution on reversed phase separation columns. For mass spectrometric detection metanomics proprietary technology was applied, which allows target and high sensitivity MRM (Multiple Reaction Monitoring) profiling in parallel to a full screen analysis. […] Moreover, several hundred additional analytes giving a fingerprint of the sample were included in the methods.
Following comprehensive analytical validation steps, the data for each analyte were normalized against data from pool samples. These samples were run in parallel through the whole process to account for process variability.
The sex- and day-stratified heteroscedastic t-test (“Welch test”) was applied to compare treated groups with respective controls. p-Values and ratios of corresponding group medians were collected as metabolic profiles and fed into a database.

[1] = female rats, fh7 (study day 7), Table 1
[2] = female rats, fh14 (study day 14), Table 1
[3] = female rats, fh28 (study day 28), Table 1
[4] = male rats, mh7 (study day 7), Table 2
[5] = male rats, mh14 (study day 14), Table 2
[6] = male rats, mh28 (study day 28), Table 2

CCCc1cc(=O)[nH]c(=S)[nH]1 [6-Propyl-2-thiouracil]
5-O-Methylsphingosine [1]: 1.40
Asparagine [1]: 1.10
Behenic acid (C22:0) [1]: 1.27
Citrate [1]: 0.87
Docosahexaenoic acid (C22:cis[4,7,10,13,16]6) [1]: 1.25
Glycine [1]: 1.13
Ketoleucine [1]: 1.05
Lysophosphatidylcholine (C18:2) [1]: 1.07
Phosphatidylcholine (C16:1, C18:2) [1]: 1.49
Phosphatidylcholine (C18:2, C20:4) [1]: 1.20
Pyruvate [1]: 0.91
Tricosanoic acid (C23:0) [1]: 1.45
erythro-Sphingosine [1]: 1.46
threo-Sphingosine [1]: 1.24
Sphingomyelin (d18:1, C16:0) (female rats, fh7 (study day 7), Table 1, first listing): 1.01
Sphingomyelin (d18:1, C16:0) (female rats, fh7 (study day 7), Table 1, second listing): 1.26
5-O-Methylsphingosine [2]: 1.36
Asparagine [2]: 1.09
Behenic acid (C22:0) [2]: 1.14
Citrate [2]: 0.69
Docosahexaenoic acid (C22:cis[4,7,10,13,16]6) [2]: 1.14
Glycine [2]: 1.08
Ketoleucine [2]: 0.80
Lysophosphatidylcholine (C18:2) [2]: 1.31
Phosphatidylcholine (C16:1, C18:2) [2]: 1.37
Phosphatidylcholine (C18:2, C20:4) [2]: 1.17
Pyruvate [2]: 0.65
Tricosanoic acid (C23:0) [2]: 1.30
erythro-Sphingosine [2]: 1.28
threo-Sphingosine [2]: 1.29
Sphingomyelin (d18:1, C16:0) (female rats, fh14 (study day 14), Table 1, first listing): 1.46
Sphingomyelin (d18:1, C16:0) (female rats, fh14 (study day 14), Table 1, second listing): 1.33
5-O-Methylsphingosine [3]: 1.20
Asparagine [3]: 0.93
Behenic acid (C22:0) [3]: 1.23
Citrate [3]: 0.66
Docosahexaenoic acid (C22:cis[4,7,10,13,16]6) [3]: 0.84
Glycine [3]: 1.05
Ketoleucine [3]: 0.89
Lysophosphatidylcholine (C18:2) [3]: 1.26
Phosphatidylcholine (C16:1, C18:2) [3]: 1.09
Phosphatidylcholine (C18:2, C20:4) [3]: 1.17
Pyruvate [3]: 0.73
Tricosanoic acid (C23:0) [3]: 1.36
erythro-Sphingosine [3]: 1.24
threo-Sphingosine [3]: 1.34
Sphingomyelin (d18:1, C16:0) (female rats, fh28 (study day 28), Table 1, first listing): 1.62
Sphingomyelin (d18:1, C16:0) (female rats, fh28 (study day 28), Table 1, second listing): 1.29
3-O-Methylsphingosine [4]: 1.57
5-O-Methylsphingosine [4]: 1.50
14-Methyl-Pentadecanoic acid [4]: 0.98
17-Methyloctadecanoic acid [4]: 1.10
Arginine [4]: 1.09
Cholesterol [4]: 1.42
Citrate [4]: 0.90
Dihom-gamma-Linolenic acid (C20:cis[8,11,14]3) [4]: 1.02
Lignoceric acid (C24:0) [4]: 1.28
Phytosphingosine [4]: 1.11
Sphingomyelin (d18:1, C16:0) [4]: 1.35
Tricosanoic acid (C23:0) [4]: 1.28
alpha-Tocopherol [4]: 1.20
erythro-Sphingosine [4]: 1.46
threo-Sphingosine [4]: 1.33
Glutamate (male rats, mh7 (study day 7), Table 2, first listing): 0.78
Glutamate (male rats, mh7 (study day 7), Table 2, second listing): 1.03
3-O-Methylsphingosine [5]: 1.41
5-O-Methylsphingosine [5]: 1.38
14-Methyl-Pentadecanoic acid [5]: 0.86
17-Methyloctadecanoic acid [5]: 0.67
Arginine [5]: 1.10
Cholesterol [5]: 0.98
Citrate [5]: 0.73
Dihom-gamma-Linolenic acid (C20:cis[8,11,14]3) [5]: 1.33
Lignoceric acid (C24:0) [5]: 1.12
Phytosphingosine [5]: 1.07
Sphingomyelin (d18:1, C16:0) [5]: 1.35
Tricosanoic acid (C23:0) [5]: 1.10
alpha-Tocopherol [5]: 1.15
erythro-Sphingosine [5]: 1.30
threo-Sphingosine [5]: 1.23
Glutamate (male rats, mh14 (study day 14), Table 2, first listing): 0.78
Glutamate (male rats, mh14 (study day 14), Table 2, second listing): 0.70
3-O-Methylsphingosine [6]: 1.90
5-O-Methylsphingosine [6]: 1.82
14-Methyl-Pentadecanoic acid [6]: 0.64
17-Methyloctadecanoic acid [6]: 0.70
Arginine [6]: 1.35
Cholesterol [6]: 1.23
Citrate [6]: 0.64
Dihom-gamma-Linolenic acid (C20:cis[8,11,14]3) [6]: 1.50
Lignoceric acid (C24:0) [6]: 1.16
Phytosphingosine [6]: 1.20
Sphingomyelin (d18:1, C16:0) [6]: 1.71
Tricosanoic acid (C23:0) [6]: 1.55
alpha-Tocopherol [6]: 1.12
erythro-Sphingosine [6]: 1.47
threo-Sphingosine [6]: 1.52
Glutamate (male rats, mh28 (study day 28), Table 2, first listing): 0.65
Glutamate (male rats, mh28 (study day 28), Table 2, second listing): 0.49
